Experimental data from patent publication US20250345318A1, “COMPOUND AND USE THEREOF IN PREVENTING OR TREATING RADIATION DAMAGE” (SIMCERE PHARMACEUTICAL CO., LTD., priority 2022, published 2025).

Columns and labels:
[1] = tested on: SPCA-1 cells transfected with JWA-knockdown plasmids; assay: Colony formation of SPCA-1 cells transfected with JWA-knockdown plasmids (Example 22); type: cell-based, human; details: JAC4-treated JWA-knockdown SPCA-1 vs JAC4-treated si-Control
Experimental: (§1) 1. SPCA-1 and BEAS-2B cells (or SPCA-1 and BEAS-2B cells transfected with JWA-knockdown plasmids) in the exponential growth phase were plated in 6-well plates at a specific amount. The number of plated cells is as follows
(§2) 2. After the cells adhered to the container wall, the cells were treated (or not treated) with […] JAC4 and treated with X-ray of 0, 2, 4, or 6 Gy. The medium was replaced with a fresh medium containing JAC4 at the corresponding concentration once every 2 days (or the cells were treated with X-ray of 0, 2, 4, or 6 Gy after adhesion, and the medium was replaced with a fresh medium once every 2 days).
(§3) 3. After the cells were cultured for 10-14 days, colonies were visually observed. The culture medium was discarded, and the cells were fixed with methanol for 10-20 min, stained with crystal violet for 10 min, slowly washed with flowing clear water thrice, photographed, and counted for colonies containing>50 cells.
4. The colony forming efficiency (CFE)=(number of colonies formed/number of seeded cells) 100% was calculated, and the cell survival fraction (SF)=(colony forming efficiency of treatment group/colony forming efficiency of 0 Gy group)×100% was calculated from the colony forming efficiency. […]

[2] = tested on: BEAS-2B cells; assay: Plate colony formation, BEAS-2B (Example 22); type: cell-based, human
Experimental: The cell proliferation capacity was determined by a plate colony formation experiment, with the following specific procedures.
as §1, §2, §3
4. The colony forming efficiency (CFE)=(number of colonies formed/number of seeded cells) 100% was calculated, and the cell survival fraction (SF)=(colony forming efficiency of treatment group/colony forming efficiency of 0 Gy group)×100% was calculated from the colony forming efficiency.

[3] = tested on: C57BL/6 male mice; assay: Survival of mice receiving total body X-ray irradiation (Example 1); type: in vivo
Experimental: C57BL/6 male mice (24.8±1.6 g in body weight) aged 10 weeks were divided into two groups of 11 mice each. After acclimating to the environment, JAC4 (100 mg/kg) or an equal volume of vehicle (polyethylene glycol:ethanol:physiological saline=47.5:7.5:50, v/v/v) was orally administered to the mice once daily for 7 consecutive days. After that, the mice were subjected to total body X-ray irradiation (6.5 Gy) and JAC4 or vehicle treatment was continued. After 3 days, the administration of JAC4 or vehicle was discontinued. The status was observed daily and the body weights of the mice were recorded.

[4] = tested on: C57BL/6 male mice; assay: Lengths of small intestine and colon, acute radiation enteritis (Example 11); type: in vivo; details: JAC4 100 mg/kg oral + abdominal X-ray 12 Gy
Experimental: C57BL/6 male mice (27.6±1.9 g in body weight) aged 10 weeks were divided into 3 groups of 6 mice each. JAC4 (100 mg/kg) or an equal volume of vehicle (polyethylene glycol:ethanol:physiological saline=40:7.5:52.5, v/v/v) was orally administered to the mice once daily for 7 consecutive days. After that, the mice were subjected to abdominal X-ray irradiation (12 Gy) and JAC4 or vehicle treatment was continued. After 4 days, blood samples and small intestine were collected.
The small intestine epithelial mucosal barrier is located at the interface between luminal micro-organisms and the mucosal immune system, and can maintain the intestinal mucosal barrier homeostasis. The integrity of the small intestine mucosal barrier is determined by a number of factors, including the tight junction proteins, proteins in other cell junction complexes, and the like. JAC4 has a protective effect on the small intestine mucosal barrier. The disruption of the small intestine mucosal barrier may lead to radiation enteritis and a reduction in the length of small intestine due to the inflammatory edema.

[5] = tested on: C57BL/6 male mice; assay: Small intestine epithelial injury after abdominal X-ray irradiation at 3 or 6 Gy (Example 8); type: in vivo; details: for small intestine villus length: 4 days after
Experimental: CS7BL/6 male mice (24.8±1.6 g in body weight) aged 10 weeks were divided into 5 groups of 6 mice each. JAC4 (100 mg/kg) or an equal volume of vehicle (polyethylene glycol:ethanol:physiological saline=47.5:7.5:50, v/v/v) was orally administered to the mice once daily for 7 consecutive days. After that, the mice were subjected to abdominal X-ray irradiation at different doses (3 or 6 Gy) and JAC4 or vehicle treatment was continued. After 4 days, the small intestine tissues were collected for HE staining and inspection, the small intestine villus length and the ileum crypt height in all groups were measured and statistically analyzed, and the small intestine was histopathologically scored. The specific procedures are as follows: 3 mice were randomly selected from each group for statistical analysis of their small intestine tissue HE staining images, and for each mouse, 6 fields of view were randomly selected for inspection (*** p<0.001).

[6] = tested on: NF-κB; assay: NF-κB nuclear translocation by Western blot, BEAS-2B (Example 22); type: cell-based, human; details: JAC4 in combination with X-ray
Description: The production of ROS may lead to the activation of NF-κB, promote the translocation of NF-κB to the cell nucleus, and mediate various inflammatory responses. The nuclear and cytoplasmic proteins in BEAS-2B cells in all groups were separated.

[7] = tested on: IEC-6 cells; assay: Early apoptosis by Annexin V-PI staining in irradiated IEC-6 cells (Example 13); type: cell-based; details: 1 μM JAC4 24 h + 12 Gy X-ray, 24 h after
Experimental: The apoptosis of IEC-6 cells was determined by Annexin V-PI staining and the early apoptosis rates of IEC-6 cells after different treatments were summarized (***p<0.001). The procedures for the detection by Annexin V-PI staining are as follows: IEC-6 cells were seeded in a 6-well plate at 2×10^5 cells/well. After adhesion, the cells were treated with 1 μM JAC4 or DMSO for 24 h and subjected to 12 Gy of X-ray radiation. After 24 h, the cells were harvested in PBS and analyzed using the Annexin V apoptosis detection kit (BD, FACS AriaIII, USA) on a flow cytometer.

[8] = JAC4 100 mg/kg oral + abdominal X-ray 3 Gy
[9] = JAC4 100 mg/kg oral + abdominal X-ray 6 Gy

**Q.** What does the source list for `c1ccc(CSc2nnc(C3COc4ccccc4O3)o2)nc1` (stereo not drawn) [JAC4]?
**A.** cell survival rate (radiosensitization curve) [1]: significantly increased; number of colonies formed [1]: significantly higher; cell survival (radiosensitization curve) ([2]; 10 μM JAC4 + X-ray vs X-ray monotherapy): slightly increased; number of colonies formed ([2]; JAC4 in combination with X-ray): increased; mean survival after radiation ([3]; JAC4 100 mg/kg oral once daily, 7 days before to 3 days after total body X-ray 6.5 Gy, observation day 30): 17.9 ± 8.4 days; number of mice died ([3]; JAC4 100 mg/kg oral, TBI 6.5 Gy, 11 mice per group): 6 mice; number of mice survived ([3]; JAC4 100 mg/kg oral, TBI 6.5 Gy, 11 mice per group, vehicle group all dead on day 12): 5 mice; weight loss after radiation ([3]; JAC4 100 mg/kg oral, TBI 6.5 Gy, vs vehicle): slower; small intestine length ([4]; 4 days after): 34.83±1.44 cm; length of the colon ([4]; among the groups): no statistically significant differences; ileum crypt height [5, 8]: 62.06±3.26 μm; small intestine histopathological score [5, 8]: 1.50±0.55; small intestine villus length [5, 8]: 278.19±25.21 μm; ileum crypt height [5, 9]: 57.32±4.43 μm; small intestine histopathological score [5, 9]: 4.17±0.98; small intestine villus length [5, 9]: 278.25±23.79 μm; X-ray-induced increase of NF-κB nuclear expression [6]: inhibited; early apoptosis rate (Annexin V-PI) [7]: 5.74±0.80%
